Here are results for 25 compounds from US11708344B2, “Flavone derivatives for the treatment and prophylaxis of hepatitis B virus disease” (Hoffmann-La Roche Inc., priority 2018, dated 2023).

As a reminder, the IC50 is the midpoint of a concentration-inhibition curve.

A short description of series [1]: Human microsome stability assay. The conditions noted are these: human liver microsomes, 1 μM test compound, 0.5 mg/mL microsomal protein, 37° C., pH 7.4, 0-30 minutes. It is filed as in vitro ADME. As to the method: The human microsomal stability assay is used for early assessment of metabolic stability of a test compound in human liver microsomes.
Human liver microsomes (Cat. NO.: 452117, Corning, USA; Cat. NO.: H2610, Xenotech, USA) were preincubated with test compound for 10 minutes at 37° C. in 100 mM potassium phosphate buffer, pH 7.4. The reactions were initiated by adding NADPH regenerating system. The final incubation mixtures contained 1 μM test compound, 0.5 mg/mL liver microsomal protein, 1 mM MgCl2, 1 mM NADP, 1 unit/mL isocitric dehydrogenase and 6 mM isocitric acid in 100 mM potassium phosphate buffer, pH 7.4. After incubation times of 0, 3, 6, 9, 15 and 30 minutes at 37° C., 300 μL of cold ACN (including internal standard) was added to 100 μL incubation mixture to terminate the reaction. Following precipitation and centrifugation, the amount of compound remaining in the samples was determined by LC-MS/MS. Controls of no NADPH regenerating system at zero and 30 minutes were also prepared and analyzed.
In general terms: Liver microsomes are a subcellular fraction often used to study metabolism.

Series [2] has as its system HBeAg (surrogate marker for cccDNA) in HepDES19 cells. Put plainly: Engineered HepDES19 primary screen assay (HBeAg ELISA). It is filed as cell-based, HBV. The method in brief: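 IC50 values come from 4-parameter logistic fits of HBeAg ELISA signal, the cccDNA surrogate, with CCK-8 run in parallel for viability. Compounds at half-log dilutions with 1% DMSO were applied for 5 days at 37 °C to HepDES19 cells previously cultured 8 days without Tet.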
Background: An ELISA detects its analyte on a solid surface through an enzyme-linked reagent.

Setting [3] is: Hepatitis B virus, HepDES19, 120 h, read-out: IC50 (HBeAg level, HepDES19 primary screen assay), HepDES19 cells, 5 days compound incubation, HBeAg ELISA.

SMILES strings stand for the structures. Read-outs that look alike come from different tables or passages of the source.

Regarding `O=C(O)[C@H]1CCCN1C(=O)CCOc1cc(Br)ccc1-c1cc(=O)c2cccc(Cl)c2o1` [Example A075, (2R)-1-[3-[5-bromo-2-(8-chloro-4-oxo-chromen-2-yl)phenoxy]propanoyl]pyrrolidine-2-carboxylic acid], the “Clearance of Human microsome” value in series [1] stood at 6.15 mL/min/kg. For the same compound, the IC50 in series [2] (setting [3]) was 2.85 µM.
With `O=C(O)[C@@H]1CCCN1C(=O)CCOc1cc(Br)ccc1-c1cc(=O)c2cccc(Cl)c2o1` [Example A076, (2S)-1-[3-[5-bromo-2-(8-chloro-4-oxo-chromen-2-yl)phenoxy]propanoyl]pyrrolidine-2-carboxylic acid], the “Clearance of Human microsome” value in series [1] was 6.15 mL/min/kg. Also, in series [2] (setting [3]), the IC50 amounted to 14.1 µM.
Regarding `Cc1ccc(-c2cc(=O)c3cccc(Cl)c3o2)c(OCC(=O)N2CCC[C@@H]2C(=O)O)c1` [Example A077, (2R)-1-[2-[2-(8-chloro-4-oxo-chromen-2-yl)-5-methyl-phenoxy]acetyl]pyrrolidine-2-carboxylic acid], the “Clearance of Human microsome” value in series [1] is given as 8.57 mL/min/kg. Besides, in series [2] (setting [3]), the IC50 is 9 µM.
As to `Cc1ccc(-c2cc(=O)c3cccc(Cl)c3o2)c(OCC(=O)N2CCC[C@H]2C(=O)O)c1` [Example A078, (2S)-1-[2-[2-(8-chloro-4-oxo-chromen-2-yl)-5-methyl-phenoxy]acetyl]pyrrolidine-2-carboxylic acid], in series [1], the “Clearance of Human microsome” value was found to be 6.15 mL/min/kg. In series [2] (setting [3]), the half-maximal inhibitory concentration (IC50) is 10.2 µM.
Turning to `Cc1cc(-c2cc(=O)c3cccc(Cl)c3o2)c(OCC(=O)N2CCC[C@@H]2C(=O)O)cc1Br` [Example A079, (2R)-1-[2-[5-bromo-2-(8-chloro-4-oxo-chromen-2-yl)-4-methyl-phenoxy]acetyl]pyrrolidine-2-carboxylic acid], the “Clearance of Human microsome” value in series [1] is given as 6.6 mL/min/kg. Also, the half-inhibitory concentration (IC50) in series [2] (setting [3]) stood at 19 µM.
For the compound `Cc1cc(-c2cc(=O)c3cccc(Cl)c3o2)c(OCC(=O)N2CCC[C@H]2C(=O)O)cc1Br` [Example A080, (2S)-1-[2-[5-bromo-2-(8-chloro-4-oxo-chromen-2-yl)-4-methyl-phenoxy]acetyl]pyrrolidine-2-carboxylic acid], the “Clearance of Human microsome” value in series [1] amounted to 6.15 mL/min/kg. Moreover, in series [2] (setting [3]), the IC50 was 17.5 µM.
With `O=C(O)[C@H]1CCCN1C(=O)COc1cc(C(F)(F)F)ccc1-c1cc(=O)c2cccc(Cl)c2o1` [Example A081, (2R)-1-[2-[2-(8-chloro-4-oxo-chromen-2-yl)-5-(trifluoromethyl)phenoxy]acetyl]pyrrolidine-2-carboxylic acid], in series [1], the “Clearance of Human microsome” value turned out to be 6.15 mL/min/kg. For the same compound, the IC50 in series [2] (read-out: IC50 (HBeAg level, HepDES19 primary screen assay), HepDES19 cells, 5 days compound incubation, HBeAg ELISA) amounted to 0.26 µM.
For `COc1cc(OCCC(=O)NS(=O)(=O)C2CC2)c(-c2cc(=O)c3cccc(Cl)c3o2)cc1OC` [Example A085, 3-[2-(8-chloro-4-oxo-chromen-2-yl)-4,5-dimethoxy-phenoxy]-N-cyclopropylsulfonyl-propanamide], the “Clearance of Human microsome” value in series [1] was found to be 6.15 mL/min/kg. For the same compound, the IC50 in series [2] (setting [3]) worked out at 4.92 µM.
Regarding `O=C(COc1cc(C(F)(F)F)ccc1-c1cc(=O)c2cccc(Cl)c2o1)NCCO` [Example A086, 2-[2-(8-chloro-4-oxo-chromen-2-yl)-5-(trifluoromethyl)phenoxy]-N-(2-hydroxyethyl)acetamide], the “Clearance of Human microsome” value in series [1] is 9.68 mL/min/kg. Further, the IC50 in series [2] (setting [3]) is 1 µM.
For the compound `Cc1cc(-c2cc(=O)c3cccc(Cl)c3o2)c(OCC(=O)N2CC[C@H](O)C2)cc1Br` [Example A088, 2-[4-bromo-2-[2-[(3S)-3-hydroxypyrrolidin-1-yl]-2-oxo-ethoxy]-5-methyl-phenyl]-8-chloro-chromen-4-one], the “Clearance of Human microsome” value in series [1] was 7.09 mL/min/kg. The IC50 in series [2] (setting [3]) was determined as 1.11 µM.
Turning to `Cc1cc(-c2cc(=O)c3cccc(Cl)c3o2)c(OCC(=O)N2CC[C@@H](O)C2)cc1Br` [Example A089, 2-[4-bromo-2-[2-[(3R)-3-hydroxypyrrolidin-1-yl]-2-oxo-ethoxy]-5-methyl-phenyl]-8-chloro-chromen-4-one], the “Clearance of Human microsome” value in series [1] came to 6.69 mL/min/kg. Also, in series [2] (setting [3]), the IC50 came out at 11.9 µM.
With `COc1cc(OCC(=O)NS(=O)(=O)C2CC2)c(-c2cc(=O)c3cccc(Cl)c3o2)cc1OC` [Example A091, 2-[2-(8-chloro-4-oxo-chromen-2-yl)-4,5-dimethoxy-phenoxy]-N-cyclopropylsulfonyl-acetamide], the “Clearance of Human microsome” value in series [1] is reported as 6.15 mL/min/kg. Further, the IC50 in series [2] (setting [3]) worked out at 0.888 µM.
As for `Cc1ccc(-c2cc(=O)c3cccc(Cl)c3o2)c(OCC(=O)N2CCC[C@H]2C(=O)NS(C)(=O)=O)c1` [Example A093, (2S)-1-[2-[2-(8-chloro-4-oxo-chromen-2-yl)-5-methyl-phenoxy]acetyl]-N-methylsulfonyl-pyrrolidine-2-carboxamide], the “Clearance of Human microsome” value in series [1] is 6.15 mL/min/kg. Besides, the IC50 in series [2] (setting [3]) was 1.32 µM.
As to `Cc1ccc(-c2cc(=O)c3cccc(Cl)c3o2)c(OCC(=O)N2CCC[C@@H]2C(=O)NS(C)(=O)=O)c1` [Example A094, (2R)-1-[2-[2-(8-chloro-4-oxo-chromen-2-yl)-5-methyl-phenoxy]acetyl]-N-methylsulfonyl-pyrrolidine-2-carboxamide], the “Clearance of Human microsome” value in series [1] is listed as 6.15 mL/min/kg. Also, the IC50 in series [2] (setting [3]) amounted to 0.858 µM.
For `N[C@@H](COc1cc(C(F)(F)F)ccc1-c1cc(=O)c2cccc(Cl)c2o1)C(=O)O` [Example A095, (2S)-2-amino-3-[2-(8-chloro-4-oxo-chromen-2-yl)-5-(trifluoromethyl)phenoxy]propanoic acid], in that order: 9.59 mL/min/kg and 3.29 µM.
With `Cc1cc(Br)c(OC2CC(C(=O)O)C2)c(-c2cc(=O)c3cccc(Cl)c3o2)c1` (centres unmarked) [Example B009, 3-[2-bromo-6-(8-chloro-4-oxo-chromen-2-yl)-4-methyl-phenoxy]cyclobutanecarboxylic acid], the “Clearance of Human microsome” value in series [1] is listed as 6.19 mL/min/kg. The IC50 in series [2] (setting [3]) was determined as 5.98 µM.
For the compound `Cc1ccc(O[C@H]2C[C@@H](C(=O)O)C2)c(-c2cc(=O)c3cccc(Cl)c3o2)c1` [Example B016, Cis-3-[2-(8-chloro-4-oxo-chromen-2-yl)-4-methyl-phenoxy]cyclobutanecarboxylic acid], in series [1], the “Clearance of Human microsome” value came out at 6.15 mL/min/kg. Besides, the IC50 in series [2] (setting [3]) is 3.1 µM.
In the case of `CCc1ccc(-c2cc(=O)c3cccc(Cl)c3o2)c(O[C@H]2C[C@H](C(=O)O)C2)c1` [Example B019-B, Trans-3-[2-(8-chloro-4-oxo-chromen-2-yl)-5-ethyl-phenoxy]cyclobutanecarboxylic acid], the “Clearance of Human microsome” value in series [1] is on record as 8.92 mL/min/kg. The concentration for half-maximal inhibition (IC50) in series [2] (setting [3]) is 3.63 µM.
`CC(C)c1ccc(-c2cc(=O)c3cccc(Cl)c3o2)c(O[C@H]2C[C@H](C(=O)O)C2)c1` [Example B020-B, Trans-3-[2-(8-chloro-4-oxo-chromen-2-yl)-5-isopropyl-phenoxy]cyclobutanecarboxylic acid]: in series [1], the “Clearance of Human microsome” value is 8.46 mL/min/kg. In series [2] (setting [3]), the IC50 amounted to 9.44 µM.
Regarding `COc1ccc(O[C@H]2C[C@H](C(=O)O)C2)c(-c2cc(=O)c3cccc(Cl)c3o2)c1` [Example B021, Trans-3-[2-(8-chloro-4-oxo-chromen-2-yl)-4-methoxy-phenoxy]cyclobutanecarboxylic acid], the “Clearance of Human microsome” value in series [1] was 6.15 mL/min/kg. In series [2] (setting [3]), the IC50 was determined as 3.06 µM.
In the case of `O=c1cc(-c2ccccc2O[C@H]2C[C@H](C(=O)O)C2)oc2c(Br)cccc12` [Example B022-B, Trans-3-[2-(8-bromo-4-oxo-chromen-2-yl)phenoxy]cyclobutanecarboxylic acid], in series [1], the “Clearance of Human microsome” value is 6.15 mL/min/kg. Also, in series [2] (setting [3]), the 50% inhibitory concentration (IC50) came out at 0.141 µM.
Turning to `O=c1cc(-c2cc3c(cc2O[C@H]2C[C@H](C(=O)O)C2)CCO3)oc2c(Cl)cccc12` [Example B023, Trans-3-[[6-(8-chloro-4-oxo-chromen-2-yl)-2,3-dihydrobenzofuran-5-yl]oxy]cyclobutanecarboxylic acid], the “Clearance of Human microsome” value in series [1] came to 6.15 mL/min/kg. The IC50 in series [2] (setting [3]) was 3.39 µM.
As to `COc1ccc(OC[C@H]2C[C@H](C(=O)O)C2)c(-c2cc(=O)c3cccc(Cl)c3o2)c1` [Example B027-B], the “Clearance of Human microsome” value in series [1] was determined as 6.15 mL/min/kg. Moreover, the IC50 in series [2] (setting [3]) was 11 µM.
For `O=c1cc(-c2ncc(Br)cc2O[C@H]2C[C@H](C(=O)O)C2)oc2c(Cl)cccc12` [Example B029, Trans-3-[[5-bromo-2-(8-chloro-4-oxo-chromen-2-yl)-3-pyridyl]oxy]cyclobutanecarboxylic acid], in that order: 6.15 mL/min/kg and 14.1 µM.
Regarding `O=c1cc(-c2ccc(C(F)(F)F)cc2O[C@H]2C[C@@H](C(=O)O)C2)oc2c(Cl)ccc(O)c12` [Example B038-A, Cis-3-[2-(8-chloro-5-hydroxy-4-oxo-chromen-2-yl)-5-(trifluoromethyl)phenoxy]cyclobutanecarboxylic acid], the “Clearance of Human microsome” value in series [1] is 6.84 mL/min/kg. Moreover, the IC50 in series [2] (setting [3]) was determined as 1.05 µM.
